This is an account of results in patent EP1094830B1, “USE OF COMPOSITION COMPRISING AT LEAST ONE SUBSTANCE WITHIN THE GROUP GnRH-ANALOGUES FOR TREATMENT OF OBSESSIVE-COMPULSIVE DISORDER (OCD)” (Läkartjänster I Västsverige AB, priority 1998, dated 2005).

The test system of test [1] is symptoms of androgenic hyperactivity. As to the kind of experiment: Case study: treatment of the patient's symptoms of androgenic hyperactivity. It counts as in vivo, man. To be noted: same patient, before triptorelin. On the procedure:
An endocrinological investigation was performed, based upon their symptoms of androgenic hyperactivity.

Test [2] deals with OCD-symptoms. As to the kind of experiment: Case study: treatment of a patient with a severe form of OCD. It counts as in vivo, man. Particulars: earlier treatment of the same patient(s) with anti-androgenic drugs, before the GnRH-analogue. On the procedure:
The GnRH-analogue triptorelin is available in a pharmaceutical preparation (Decapeptyl® Depot). In the use of this preparation, an injection is administered containing triptorelin embonate in a dose corresponding to 3.75 mg triptorelin. Injections with this dose are given intramuscularly. They should be repeated every fourth week from the first injection. […] A then person was referred to a psychiatric specialist clinic from another qualified psychiatrist for evaluation and treatment of a severe condition of OCD. […] The situation when the patient came to the clinic was that they had sickness pension since more than ten years. They lived alone in a small apartment which they hardly ever left. Obsessions and compulsive rituals occupied most of their time. They repeated against their will meaningless strings of words silently during several hours every day. They felt they had to read the newspaper according to certain ritual patterns; if they did anything wrong, they had to start again from the beginning. Sometimes, it took them the whole day to read the newspaper. […] Among other things, they placed their books so that the covers were strictly oriented along north-south lines. Their contacts with other persons were highly restraint and mainly limited to some relatives. […] The clinical diagnosis was that they suffered from a very serious form of OCD. […]

Test [3] deals with obsessive-compulsive neurosis (nowadays called obsessive-compulsive disorder, OCD). To be noted: cited from earlier work.
Test [4] relates to OCD-symptoms. As to the kind of experiment: Case study: treatment of a patient with a severe form of OCD. It counts as in vivo, man. On the procedure:
The GnRH-analogue triptorelin is available in a pharmaceutical preparation (Decapeptyl® Depot). In the use of this preparation, an injection is administered containing triptorelin embonate in a dose corresponding to 3.75 mg triptorelin. Injections with this dose are given intramuscularly. They should be repeated every fourth week from the first injection.
A detailed case study of the treatment of a patient with a severe form of OCD is disclosed in the following, as supporting evidence of the effect of the method.
A then person was referred to a psychiatric specialist clinic from another qualified psychiatrist for evaluation and treatment of a severe condition of OCD.
The situation when the patient came to the clinic was that they had sickness pension since more than ten years. They lived alone in a small apartment which they hardly ever left. Obsessions and compulsive rituals occupied most of their time. They repeated against their will meaningless strings of words silently during several hours every day. They felt they had to read the newspaper according to certain ritual patterns; if they did anything wrong, they had to start again from the beginning. Sometimes, it took them the whole day to read the newspaper. […] Among other things, they placed their books so that the covers were strictly oriented along north-south lines. Their contacts with other persons were highly restraint and mainly limited to some relatives.
The clinical diagnosis was that they suffered from a very serious form of OCD. They were also found to be intelligent without any signs of any other mental illness or personality disorder. Thus, it was a clearly defined case of OCD.
During long periods of time the patient had been treated with the drugs which presently are considered to have the best effect against OCD. In the treatment of the patient they had also been given supportive psychotherapy.
In order to overcome this, treatment with the long-acting GnRH-analogue triptorelin (Decapeptyl® Depot) was given every fourth week as deep intramuscular depot injections with a dose corresponding to 3.75 mg triptorelin in each injection.

The mark [5] stands for this setting: after another two months (four months in all), 3.75 mg intramuscular every fourth week.

Entries after “also recorded” stand apart in the source; their conditions may differ.

Turning to `CC(=O)O[C@]1(C(C)=O)CC[C@H]2[C@@H]3C=C(Cl)C4=CC(=O)[C@@H]5C[C@@H]5[C@]4(C)[C@H]3CC[C@@]21C` [cyproterone acetate], the “effect on symptoms of androgenic hyperactivity” value in test [1] is “without any significant effects”. Besides, the “effect on OCD” value in the test on OCD-symptoms [2] is “without success; also recorded: without any major improvement; also recorded: without any obvious effect on their OCD”; in test [3] (later investigations by other researchers), “failed to demonstrate any effect”. For the same compound, the “effect in treatment of obsessive-compulsive neurosis” value in test [3] (a few patients, Casas et al. 1986) is reported as “effective”.

For the compound triptorelin, the “effect on OCD-symptoms” value was “dramatically better” in the test with OCD-symptoms [4] (setting [5]); “began to feel better” with OCD-symptoms [4] (after two months treatment, 3.75 mg intramuscular every fourth week); “accentuation of the patients OCD-symptoms” with OCD-symptoms [4] (initially during treatment, 3.75 mg triptorelin deep intramuscular depot injection every fourth week). In addition, the obsessive thoughts entry in the test on OCD-symptoms [4] (setting [5]) is “all obsessive thoughts had disappeared”. Moreover, the “recovery from very severe form of OCD” value with OCD-symptoms [4] (after three months of treatment) was “substantially recovered”.
